Source: article PMC10398685 (ACS Omega, 2023)
Read-outs that look alike come from different tables or passages of the source.

How the values were obtained:
Plasma stability, mouse = format: in vitro ADME; conditions: 5uM, triplicates
[1] = Steady-state intracellular uptake in VERO-E6 cells; format: in vitro ADME; conditions: African green monkey, VERO-E6 cells; VERO-E6, 60 min incubation, 50 μM at t = 0; read-out: Kp (intracellular accumulation ratio IC/EC)
Source text: (§1) While an enzymatic MTase assay represents a valuable fast screening platform providing the information that can be directly used for SAR analyses, it is not fully predictive for the compounds’ activity in whole cells. In order to verify the ability of the compounds to reach the intracellular compartment, we measured the steady-state accumulation of representative compounds in intact CCRF-CEM, VERO-E6, and Calu-3 cells (Tables 3 and S2). […] Compound 12q was almost completely cleared from the medium after 60 min incubation with the cells rendering it among the most permeable compounds of the series based on Kp values. It should be noted that the apparent intracellular concentration of the compounds may be biased by their potential metabolism. Therefore, we decided to subject the selected derivatives to in vitro stability studies. […]
(§2) 3.3. Intracellular Uptake
(§3) Steady-state cellular uptake was measured in CCRF-CEM cells (ATCC, CRL-119), VERO-E6 cells (ATCC, CRL-1586) and Calu-3 cells (HTB-55), respectively. […]
(§4) The medium was stored at −20 °C […]
(§5) for later analysis of the extracellular concentration of the compounds. The cells were washed two times with 1 mL PBS (900 x g, 5 min, +4 °C), and also stored at −20 °C for subsequent analysis of the intracellular concentration of the compounds. At the day of the analysis, both media and the pelleted cells were quickly thawed. The cell pellets were extracted with 200 μL of ice-cold methanol by vigorous shaking, further diluted 1:1 with water and centrifuged at 20 000 x g for 10 min. As for the media samples, 10 μL aliquots were extracted with 990 μL of 50% methanol. The samples were then transferred to ECHO® -compatible 384-well plates and the amount of analytes were quantified by the ECHO -MS® System (Sciex) where acoustic droplet ejection module is coupled with Sciex 6500® triple quadrupole mass spectrometer operating with an electrospray ionization source. Spectrometer was run in the multiple reaction monitoring (MRM) mode. When necessary, the processed samples were further diluted in 50% methanol to fit in the calibration range. Calibration curves of the compounds in 50% methanol were measured alongside the samples within the same run. The ra tio between the total compound concentration in the cells and compound concentration in the medium (K p) at t=60 min was calculated according to: Kp = (Acell / Vcell) / Cmedium, where Acell is the amount of compound in the cell lysate, Vcell is the CCRF-CEM cell volume (3.38 μL/10^7 cells)16 and Cmedium is the compound concentration in the medium sample after correcting for sample dilution. Experiments were performed in duplicates.
(§6) For adherent cells (Vero E6 and Calu-3), the workflow was modified as follows: Cells were seeded on 6-well plates at a concentration of […] and 8.2 x 10^5 cells/well for Vero E6 and Calu-3, respectively, in 3 mL of serum-free culture media. The cells were left to attach overnight, the medium was then aspirated and replenished with 2 mL of fresh media containing the compounds (50 µM final conc). After 60 min at 37 °C the media was aspirated and the cells were washed twice with 1 mL of PBS. Then, 1 mL of fresh PBS was added and the cells were subjected to three freeze-thaw cycles and further diluted with 1:1 with MeOH. The cell lysates and the media were further processed as described above. Intracellular volume of Vero E6 and Calu-3 cells (8.6 and 14 μL/107 cells, respectively) was calculated from their diameter determined by cell counter (Luna FL) while in suspension (following the trypsinization) assuming the homogenous spheres.

VERO-E6 cells = experiment: Steady-state intracellular uptake in VERO-E6 cells; format: in vitro ADME; conditions: VERO-E6, 60 min incubation, 50 μM at t = 0
Source text: as §1, §2, §3, §4, §5, §6

Plasma stability, human = format: in vitro ADME; conditions: 5uM, triplicates, 37 °C
Protocol: The microsomal half-lives (t1/2) were calculated using the equation t1/2=0.693/k, where k is the slope found in the linear fit of the natural logarithm of the fraction remaining of the parent compound vs. incubation time. […]
To determine plasma stability of the compounds, 5 μM of these were incubated with human pooled plasma from 50 donors (Biowest) for 120 min and 240 min at 37 °C. The reactions were terminated by adding four volumes of ice -cold methanol, the samples were then mixed vigorously and left at -20 °C for 1 h. After that, the samples were centrifuged, and the supernatant was analyzed by means of ECHO -MS® System (Sciex). Zero time points were prepared by adding ice-cold methanol to the compound prior the addition of the plasma. […]

SARS-CoV-2 [2] = experiment: microbe, parasite or virus in culture; format: cell-based; conditions: Severe acute respiratory syndrome coronavirus 2, 72 h; Calu-3 cells, MOI~0.03, 3 days incubation, CPE by XTT; read-out: EC50 (anti-SARS-CoV-2 activity)
in vitro [3] = conditions: human
SARS-CoV-2 [4] = experiment: microbe, parasite or virus in culture; format: cell-based; conditions: Severe acute respiratory syndrome coronavirus 2, Vero C1008, 72 h; VeroE6 cells, MOI~0.03, 3 days incubation, CPE by XTT; read-out: EC50 (anti-SARS-CoV-2 activity)
in vitro [5] = conditions: African green monkey

SMILES	Plasma stability Rem. at 120 min (Plasma stability, mouse) [%]	Plasma stability T1/2 (Plasma stability, mouse)	Kp at 1 h, 50 µM [1]	EC (extracellular concentration in the media at t = 60 min) ± sd (VERO-E6 cells) [µM]	Plasma stability Rem. at 120 min (Plasma stability, human) [%]	Plasma stability T1/2 (Plasma stability, human)	EC50 (SARS-CoV-2 [2]) [µM]	CC50 at 3 days (in vitro [3]) [µM]	EC50 (SARS-CoV-2 [4]) [µM]	CC50 at 3 days (in vitro [5]) [µM]	IC (intracellular concentration in the cells at t = 60 min) ± sd (VERO-E6 cells)
CCN(C[C@H]1O[C@@H](n2cc(C#Cc3nc4ccccc4[nH]3)c3c(N)ncnc32)[C@H](O)[C@@H]1O)S(=O)(=O)c1ccc(OC)c(C#N)c1 [Compound 12a]	119.2 ± 6.0	Stable	822	42 ± 3.2	84.3 ± 2.6	Stable	> 100	> 100	> 100	> 100	–
CCN(C[C@H]1O[C@@H](n2cc(C#Cc3cnc4ccccc4c3)c3c(N)ncnc32)[C@H](O)[C@@H]1O)S(=O)(=O)c1ccc(OC)c(C#N)c1 [Compound 12e]	120.8 ± 10.5	Stable	608	16.5 ± 3.6	76.3 ± 13.7	Stable	> 100	> 100	> 100	> 100	–
CCN(C[C@H]1O[C@@H](n2cc(C#Cc3ccc(N)nc3)c3c(N)ncnc32)[C@H](O)[C@@H]1O)S(=O)(=O)c1ccc(OC)c(C#N)c1 [Compound 12h]	108.2 ± 4.2	Stable	885	19.5 ± 2.0	102.3 ± 4.8	Stable	> 100	> 100	> 100	> 100	–
CCN(C[C@H]1O[C@@H](n2cc(C#Cc3cccnc3)c3c(N)ncnc32)[C@H](O)[C@@H]1O)S(=O)(=O)c1ccc(OC)c(C#N)c1 [Compound 12l]	109.9 ± 1.0	Stable	225	17.1 ± 2.9	89.8 ± 2.0	Stable	> 100	> 100	> 100	> 100	–
CCN(C[C@H]1O[C@@H](n2cc(C#Cc3ccc(C(N)=O)cc3)c3c(N)ncnc32)[C@H](O)[C@@H]1O)S(=O)(=O)c1ccc(OC)c(C#N)c1 [Compound 12o]	115.4 ± 3.7	Stable	247	20.9 ± 0.8	95.6 ± 5.1	Stable	> 100	> 100	> 100	> 100	–
COc1ccc(S(=O)(=O)N(C)C[C@H]2O[C@@H](n3cc(C#Cc4cnc5ccccc5c4)c4c(N)ncnc43)[C@H](O)[C@@H]2O)cc1C#N [Compound 12q]	113.2 ± 3.7	Stable	–	0.1 ± 0.1	97.2 ± 4.1	Stable	> 100	> 100	> 100	> 100	18,533 ± 7709 μM
COc1ccc(S(=O)(=O)N(C)C[C@H]2O[C@@H](n3cc(C#Cc4ccc(C(N)=O)cc4)c4c(N)ncnc43)[C@H](O)[C@@H]2O)cc1C#N [Compound 12r]	113.5 ± 6.0	Stable	–	1.1 ± 0.5	89.7 ± 0.6	Stable	> 100	> 100	> 100	> 100	19,777 ± 7485 μM
COc1ccc(S(=O)(=O)N(C)C[C@H]2O[C@@H](n3cc(C#Cc4cccnc4)c4c(N)ncnc43)[C@H](O)[C@@H]2O)cc1C#N [Compound 12s]	102.7 ± 3.4	Stable	5210	2.6 ± 2.3	86.9 ± 0.9	Stable	> 100	> 100	> 100	> 100	13,578 ± 3626 μM
